# PubChem BioAssay (NCI)
# Where “and” joins values, the source holds several entries; their conditions need not be identical. Equal values may be shown once.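 1) Cells in 96-well plates. 2) Compound, 48 h, 5 concentrations. 3) Linear interpolation between surrounding doses. 4) Unreached endpoint = highest concentration. GI50: concentration for 50% inhibition of growth. The concentration for full growth arrest is given as TGI.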
# Legend:
# Assay in all cases: growth of human tumour cells (NCI), 48 h
# MCF7 breast = test system: MCF7 breast
# SW-620 colon = test system: SW-620 colon
# HCT-15 colon = test system: HCT-15 colon
# 786-0 renal = test system: 786-0 renal
# NCI-H226 lung = test system: NCI-H226 lung
# T-47D breast = test system: T-47D breast
# MALME-3M melanoma = test system: MALME-3M melanoma
# SK-MEL-2 melanoma = test system: SK-MEL-2 melanoma
# NCI/ADR-RES ovarian = test system: NCI/ADR-RES ovarian
# UO-31 renal = test system: UO-31 renal
SMILES,TGI (MCF7 breast),TGI (SW-620 colon),TGI (HCT-15 colon),TGI (786-0 renal),TGI (NCI-H226 lung),TGI (T-47D breast),TGI (MALME-3M melanoma),TGI (SK-MEL-2 melanoma),TGI (NCI/ADR-RES ovarian),TGI (UO-31 renal),GI50 (MCF7 breast),GI50 (SW-620 colon),GI50 (HCT-15 colon),GI50 (786-0 renal),GI50 (NCI-H226 lung),GI50 (T-47D breast),GI50 (MALME-3M melanoma),GI50 (SK-MEL-2 melanoma),GI50 (NCI/ADR-RES ovarian),GI50 (UO-31 renal)
Nc1ncnc2c1ncn2C1OC(C(=O)O)C(O)C1O (stereo unspecified),> 100 µM,> 100 µM,> 100 µM,> 100 µM,> 100 µM,> 100 µM,> 100 µM,> 100 µM,> 100 µM,> 100 µM,,,,,,,,,,
OC1CCC(C2C3CCCCC3C3CCCCC3C2C2CCC(O)CC2)CC1 (stereo unspecified),34.3 µM,19.6 µM,6.14 µM,> 100 µM,> 100 µM,11 µM,41.7 µM,25.3 µM,> 100 µM,36.5 µM,,,,,,,,,,
CCc1ccc(C2=C(O)C(=O)C(c3ccc(CC)cc3)=C(O)C2=O)cc1,5.05 µM,10.4 µM,7.5 µM,2.95 µM,7.34 µM,6.65 µM,5.4 µM,3.35 µM,5.86 µM,4.91 µM,1.83 µM,2.87 µM,2.23 µM,1.57 µM,1.9 µM,1.9 µM,1.28 µM,1.18 µM,2.21 µM,1.73 µM
C=C(CNCCO)[C@@H]1CC[C@]2(CO)CC[C@]3(C)[C@H](CC[C@@H]4[C@@]5(C)CCC(NCCc6ccc(O)cc6)C(C)(C)[C@@H]5CC[C@]43C)[C@@H]12 (stereo partly specified),1.48 µM,1.85 µM,2.82 µM,0.523 µM,3.48 µM,3.55 µM,3.13 µM,3.18 µM,5.1 µM,2.94 µM,0.339 µM,0.468 µM,1.36 µM,0.202 µM,1.69 µM,1.74 µM,1.59 µM,1.66 µM,2.18 µM,1.51 µM
COC(=O)c1ccc2c(c1)c1c(C)c3cnccc3c(C)c1n2C,0.511 µM,1.31 µM,1.38 µM,1.34 µM,0.341 µM,2.25 µM,0.314 µM,0.471 µM,0.636 µM,0.821 µM,0.109 µM,0.0375 µM,0.0394 µM,0.0666 µM,0.0574 µM,0.28 µM,0.0615 µM,0.107 µM,0.0498 µM,0.0369 µM
O=C1C=C(c2cc(Br)c(O)c(Br)c2)/C(=C/c2cc(Br)c(O)c(Br)c2)O1,> 75 µM,> 75 µM,> 75 µM,> 75 µM,> 75 µM,> 75 µM,> 75 µM,> 75 µM,> 75 µM,> 75 µM,37 µM,29.7 µM,28.8 µM,35.8 µM,43.6 µM,> 75 µM,41.5 µM,38.5 µM,40.3 µM,19.2 µM
CN(C)CCNC(=O)c1cccc(CO)c1[N+](=O)[O-],> 100 µM,> 100 µM,> 100 µM,> 100 µM,> 100 µM,> 100 µM,> 100 µM,> 100 µM,> 100 µM,> 100 µM,,,,,,,,,,
CCC(=O)N1C/C(=C/c2ccc(OC)cc2)C(=O)/C(=C/c2ccc(OC)cc2)C1,12.2 µM,3.64 µM,5.31 µM,3.72 µM,> 100 µM,> 100 µM,6.26 µM,5.38 µM,> 100 µM,2.71 µM,0.498 µM,1.66 µM,2.03 µM,1.87 µM,22.3 µM,5.1 µM,2.47 µM,2.53 µM,3.54 µM,1.34 µM
ClCCn1cnc2c(SCc3ccccc3)ncnc21,> 100 µM,> 100 µM,> 100 µM,19.7 µM,> 100 µM,> 100 µM,> 100 µM,> 100 µM,> 100 µM,39.4 µM,1.65 µM,3.14 µM,0.334 µM,1.05 µM,31 µM,11.7 µM,25.7 µM,2.24 µM,4.94 µM,2.13 µM
N#C/C(=C(\O)C(=O)O)c1ccc(-c2cccc3ccccc23)cc1,> 100 µM,> 100 µM,> 100 µM,> 100 µM,> 100 µM,> 100 µM,> 100 µM,> 100 µM,> 100 µM,> 100 µM,,,,,,,,,,
CC(O)C(NC(=O)C(CS)NC(=O)C(CO)NC(=O)C(CCCCN)NC(=O)C(Cc1c[nH]c2ccccc12)NC(=O)C(Cc1ccc(O)cc1)NC(=O)C(CS)NC(=O)C(N)Cc1ccccc1)C(N)=O (stereo unspecified),> 25 µM,> 25 µM,> 25 µM and 56.2 µM,> 25 µM and 79 µM,> 25 µM,> 25 µM,> 25 µM,> 25 µM and 49.5 µM,> 25 µM,> 25 µM,,,,,,,,22 µM,,
